Assay results published in patent publication US5053070A, “Pyrimidine derivatives, preparation processes thereof, herbicide containing the same, and herbicidal compositions containing the same along with other active ingredient” (Mitsui Toatsu Chemicals, Incorporated, priority 1988, dated 1991).

Tests used:
[1] = system: bulrush; test: Treatment of soil under submerged condition, pre-emergence (Test 4); assay type: in vivo; details: 30 g ai/a granule, 30 days later
Procedure: (§1) 1/5000-are Wagner pots were filled with soil. Seeds or tubers of barnyardgrass, Monochoria vaginalis, bulrush, Sagittaria pygmaea, Cyperus seroylnus and Eleocharis kuroguwai were seeded or planted under submerged condition. Two pairs of rice seedlings (2-3 leaf stage), which had been reared in advance, were transplanted to each pot and were allowed to germinate in a green house. Each pair consisted of two rice seedlings. One day later (before emergence of weeds), each pot was treated with a granule which had been prepared by processing a predetermined amount of the test composition in accordance with a similar method to the method described in Formulation Example 9. The state of emergence of weeds and the state of injury of rice were observed 30 days later.
(§2) In the table, the degrees of damages of the test plants and the degrees of injury of rice are shown in a similar manner to Example 2.

[2] = system: Sagittaria pygmaea; test: as above; assay type: in vivo; details: 30 g ai/a granule, 30 days later
Procedure: as §1, §2

[3] = system: barnyardgrass; test: as above; assay type: in vivo; details: 30 g ai/a granule, 30 days later
Procedure: as §1, §2

[4] = system: bulrush; test: Treatment of soil under submerged condition, post-emergence (Test 5); assay type: in vivo; details: 30 g ai/a granule, 30 days later
Procedure: as §1, with “serroylnus” for “seroylnus”, “grow” for “germinate”, “When the barnyardgrass grew to two-leaf stage,” for “One day later (before emergence of weeds),”
(§3) In the table, the degrees of damages of the test plants and the degrees of injury of the rice are shown in a similar manner to Example 2.

[5] = system: Sagittaria pygmaea; test: as above; assay type: in vivo; details: 30 g ai/a granule, 30 days later
Procedure: as §1, with “serroylnus” for “seroylnus”, “grow” for “germinate”, “When the barnyardgrass grew to two-leaf stage,” for “One day later (before emergence of weeds),”
as §3

[6] = system: barnyardgrass; test: as above; assay type: in vivo; details: 30 g ai/a granule, post-emergence (barnyardgrass two-leaf stage), 30 days later
Procedure: as §1, with “serroylnus” for “seroylnus”, “grow” for “germinate”, “When the barnyardgrass grew to two-leaf stage,” for “One day later (before emergence of weeds),”
as §3

[7] = system: green foxtail; test: Upland soil application test (Test 2); assay type: in vivo; details: 30 g ai/a, soil spray before emergence, 30 days later
Procedure: (§4) Resin-made 1/2500-are pots were filled with the soil of an upland field. After they were fertilized, soybean, peanut and cotton were seeded and 2-3 cm soil covering was applied. Seeds of redroot pigweed, common lambsquarters, barnyardgrass, green foxtail, large crabgrass, foxtail meadow and johnsongrass had been uniformly mixed with the soil. They were allowed to germinate in a green house. One day later (before emergence of weeds), a wettable powder prepared from a predetermined amount of each test compound in a similar manner to the method described in Formulation Example 1 was diluted with water and then sprayed evenly at an application rate equal to 10 l per are onto the surface of the soil by means of a pressure-operated ULV (ultra low volume) sprayer. Influence to the crops and weeds were observed 30 days later. The results are shown in Table 3, in which the degree of damages of each test plant and the degree of injury to each crop were determined by comparing the air-dried weights of the test plant and crop with those of the corresponding plant and crop in untreated pots and are shown in accordance with the following standard: […]

[8] = system: large crabgrass; test: Upland soil application test (Test 2); assay type: in vivo; details: 30 g ai/a, soil spray before emergence, 30 days later
Procedure: as §4

[9] = system: foxtail meadow; test: Upland soil application test (Test 2); assay type: in vivo; details: 30 g ai/a, soil spray before emergence, 30 days later
Procedure: as §4

[10] = system: redroot pigweed; test: Upland soil application test (Test 2); assay type: in vivo; details: 30 g ai/a, soil spray before emergence, 30 days later
Procedure: as §4

[11] = system: barnyardgrass; test: Upland soil application test (Test 2); assay type: in vivo; details: 30 g ai/a, soil spray before emergence, 30 days later
Procedure: as §4

[12] = system: common lambsquarters; test: Upland soil application test (Test 2); assay type: in vivo; details: 30 g ai/a, soil spray before emergence, 30 days later
Procedure: as §4

[13] = system: johnsongrass; test: Upland soil application test (Test 2); assay type: in vivo; details: 30 g ai/a, soil spray before emergence, 30 days later
Procedure: as §4

[14] = system: rice; test: Treatment of soil under submerged condition, pre-emergence (Test 4), injury; assay type: in vivo; details: 30 g ai/a granule, 30 days later
Procedure: as §1, §2

[15] = system: ALS (acetolactate syntase); test: ALS enzyme assay (Test 1); assay type: biochemical, pea; details: 1,000 ppm (0.5 mg/0.5 ml)
Procedure: To determine the selectivity in enzyme level between crops and weeds, and ALS enzyme assay was conducted using pea as a representative of broadleaf crops and barnyardgrass as a representative of narrowleaf weeds.
After seeds of pea and barnyardgrass were allowed to germinate at 25° C. for 8-14 days in a dark place, partially-purified suspensions (Suspensions A) of acetolactate syntase were separately obtained from seedlings in accordance with the method described in the literature, Plant Physiology, 75, 827-831.
In a test tube, 0.5 mg of one of test compounds was weighed, followed by the addition of 0.15 ml of a 20 mM K2 HPO4 solution and 0.25 ml of a reaction substrate medium which consisted of 40 mM of K2 HPO4, 40 mM of sodium pyruvate, 1 mM of TPP, 1 mM of MgCl2 and 20 μM of FAD so that 0.4 ml of a reaction solution (Solution B) was prepared. Added to 0.4 ml of Solution B was 0.1 ml of suspension A. After the resultant mixture was shaken for 1 hour in a thermostat water bath controlled at 30° C., 50 μl of 6N sulfuric acid were added to terminate the reaction.
Next, the reaction-terminated liquid mixture was transferred into a thermostat water bath controlled at 60° C. and was heated for 15 minutes. Thereafter, 0.5 ml of a 0.5% creatine solution and 0.5 ml of a 5% alkaline α-naphthol solution were added, and the resultant mixture was maintained at 60° C. for 15 minutes. As a result, the test solution developed a pink-red color. After the above operation, the absorbance of the test solution at 525 nm was measured by a spectrophotometer (Absorbance 1 of Test Compound).
On the other hand, the absorbance (Absorbance 2 of Blank) of a solution obtained by subjecting a portion of Solution B, said portion being free of the test compound, to the above operation and the absorbance (Absorbance 3 of sulfuric acid terminated) of another solution obtained by subjecting another portion of Solution B, said portion containing 50 μl of 6N sulfuric acid as a test compound, were measured at the same time. Based on the values of the respective measurements, the enzyme assay at 1,000 ppm (0.5 mg/0.5 ml) of each compound was determined. [formula]

[16] = system: soybean; test: Upland soil application test (Test 2), crop injury; assay type: in vivo; details: 30 g ai/a, soil spray before emergence, 30 days later
Procedure: as §4

[17] = system: cotton; test: Upland soil application test (Test 2), crop injury; assay type: in vivo; details: 30 g ai/a, soil spray before emergence, 30 days later
Procedure: as §4

[18] = system: peanut; test: Upland soil application test (Test 2), crop injury; assay type: in vivo; details: 30 g ai/a, soil spray before emergence, 30 days later
Procedure: as §4

| Inhibitory activity (%) Pea [15] [%] | Structure (SMILES) | Herbicidal effects Bulrush [1] | Herbicidal effects Sagittaria Pygmaea [2] | Herbicidal effects Barnyardgrass [3] | Herbicidal effects Bulrush [4] | Herbicidal effects Sagittaria Pygmaea [5] | Herbicidal effects Barnyardgrass [6] | Herbicidal effects Green foxtail [7] | Herbicidal effects Large crabgrass [8] | Herbicidal effects Foxtail meadow [9] | Herbicidal effects Redroot pigweed [10] | Herbicidal effects Barnyardgrass [11] | Herbicidal effects Common lambsquarters [12] | Herbicidal effects Johnsongrass [13] | Injury Rice [14] | Injury Soybean [16] | Injury Cotton [17] | Injury Peanut [18] |
| --- | --- | --- | --- | --- | --- | --- | --- | --- | --- | --- | --- | --- | --- | --- | --- | --- | --- | --- |
| 8 | COc1cc(OC)nc(Oc2ccccc2C=NOCC=Cc2ccc(Cl)cc2)n1 [Compound No. 28] | 3 (11-40 (Medium damages)) | 3 (11-40 (Medium damages)) | 3 (11-40 (Medium damages)) | 4 (6-10 (Severe damages)) | 4 (6-10 (Severe damages)) | 5 (0-5 (Death)) | 5 (0-5 (Death)) | 4 (6-10 (Severe damages)) | 5 (0-5 (Death)) | 4 (6-10 (Severe damages)) | 4 (6-10 (Severe damages)) | 4 (6-10 (Severe damages)) | 5 (0-5 (Death)) | 0 (91-100 (No damages)) | 0 (91-100 (No damages)) | 0 (91-100 (No damages)) | 0 (91-100 (No damages)) |
| 8 | COc1cc(OC)nc(Oc2ccccc2C=NOCC=Cc2cccc(Cl)c2)n1 [Compound No. 26, 0-(3-chlorocinnamyl)-2-(4,6-dimethoxy-2-pyrimidinyloxy)benzaldxime] | 4 (6-10 (Severe damages)) | 5 (0-5 (Death)) | 4 (6-10 (Severe damages)) | 4 (6-10 (Severe damages)) | 4 (6-10 (Severe damages)) | 5 (0-5 (Death)) | 5 (0-5 (Death)) | 5 (0-5 (Death)) | 4 (6-10 (Severe damages)) | 5 (0-5 (Death)) | 5 (0-5 (Death)) | 4 (6-10 (Severe damages)) | 5 (0-5 (Death)) | 0 (91-100 (No damages)) | 0 (91-100 (No damages)) | 0 (91-100 (No damages)) | 0 (91-100 (No damages)) |
| 0 | COc1cccc(C=CCON=Cc2ccccc2Oc2nc(OC)cc(OC)n2)c1 [compound 38] | 4 (6-10 (Severe damages)) | 5 (0-5 (Death)) | 4 (6-10 (Severe damages)) | 5 (0-5 (Death)) | 4 (6-10 (Severe damages)) | 5 (0-5 (Death)) | 5 (0-5 (Death)) | 5 (0-5 (Death)) | 4 (6-10 (Severe damages)) | 4 (6-10 (Severe damages)) | 5 (0-5 (Death)) | 4 (6-10 (Severe damages)) | 5 (0-5 (Death)) | 0 (91-100 (No damages)) | 0 (91-100 (No damages)) | 0 (91-100 (No damages)) | 0 (91-100 (No damages)) |
| 0 | CCc1ccc(C=CCON=Cc2ccccc2Oc2nc(OC)cc(OC)n2)cc1 [compound 37] | 4 (6-10 (Severe damages)) | 4 (6-10 (Severe damages)) | 4 (6-10 (Severe damages)) | 5 (0-5 (Death)) | 4 (6-10 (Severe damages)) | 5 (0-5 (Death)) | 5 (0-5 (Death)) | 5 (0-5 (Death)) | 5 (0-5 (Death)) | 4 (6-10 (Severe damages)) | 4 (6-10 (Severe damages)) | 4 (6-10 (Severe damages)) | 5 (0-5 (Death)) | 0 (91-100 (No damages)) | 0 (91-100 (No damages)) | 0 (91-100 (No damages)) | 0 (91-100 (No damages)) |
| 3 | CON=Cc1ccccc1Oc1nc(OC)cc(OC)n1 [Compound No. 1, O-methyl--2-(4,6-dimethoxy-2-pyrimidinyloxy)benzaldoxime] | 2 (41-70 (Small damages)) | 3 (11-40 (Medium damages)) | 2 (41-70 (Small damages)) | 5 (0-5 (Death)) | 3 (11-40 (Medium damages)) | 4 (6-10 (Severe damages)) | 5 (0-5 (Death)) | 4 (6-10 (Severe damages)) | 5 (0-5 (Death)) | 5 (0-5 (Death)) | 5 (0-5 (Death)) | 4 (6-10 (Severe damages)) | 5 (0-5 (Death)) | 0 (91-100 (No damages)) | 0 (91-100 (No damages)) | 0 (91-100 (No damages)) | 0 (91-100 (No damages)) |
